Assay results from US20230227878A1, “PROCESS FOR PREPARING SURFACTANT” (Enza Biotech AB, priority 2020, published 2023).

Tests used:
[1] = Foam measurement (Dynamic Foam Analyser, Kruss); format: physicochemical; details: 50 ml of 1.5 wt % solution, stirred at 3,000 rpm for 2 minutes
Protocol: Foaming was evaluated using a Dynamic Foam Analyser from Kruss. A volume of 50 ml of 1.5 wt % alkyl polyglucoside solution was added to the cylinder. […] PEG-80 sorbitan laurate and cocamidopropyl betaine were used as surfactant controls.

[2] = Essential oils solubility; format: physicochemical; details: 7 wt % solubilizer in water, room temperature, after 5 hours
Protocol: 13 wt % solution of alkyl polyglucoside in distilled water was prepared and separately mixed with lemon oil, lavender oil, tea tree oil and patchouli oil at a ratio of 1:7 (w/w), and then the mixtures were added dropwise under stirring to water to a final concentration of 1 wt % essential oil and 7 wt % alkyl polyglucoside. […] The mixtures were then left at room temperature for 5 hours and observed for phase separation. Lauryl glucoside was used as a surfactant control with both lemon oil and lavender oil.

| Foam height [1] | Substance | Essential oils solubility: lavender oil mixture appearance / phase separation ([2]; 1 wt % lavender oil) | Essential oils solubility: lemon oil mixture appearance / phase separation ([2]; 1 wt % lemon oil) |
| --- | --- | --- | --- |
| 78 mm | cocamidopropyl betaine |  |  |
|  | lauryl glucoside | white and cloudy, and had phase separated | white and cloudy, and had phase separated |
